According to PubChem BioAssay AID1259407 (Chemical Carcinogenesis Research Information System (CCRIS), 2018):
Calls of active or inactive are those of the source. No rule for the calls is given here.

Test system: CCRIS mutagenicity, Ames/micronucleus/aberration tests
Test: CCRIS mutagenicity studies

In the case of `O=C([O-])c1ccccn1.O=C([O-])c1ccccn1.O=C([O-])c1ccccn1.[Cr+3]`, the mutagenic call (End Point: In vivo chromosomal aberrations, Test System: Bone marrow cells, Species: Rat, Strain/Sex: Sprague-Dawley/Male and female, Route: Oral (gavage) once) is reported as “inactive; negative”, the mutagenic call (End Point: In vivo micronucleus, Test System: Bone marrow polychromatic erythrocytes, Species: Rat, Strain/Sex: F344/N / Male, Route: Oral) is reported as “inactive; negative” and the mutagenic call (Test System: AMES SALMONELLA TYPHIMURIUM, Strain/Indicator: TA98, Metabolic Activation: HAMSTER LIVER S-9, AROCLOR 1254, Method: STANDARD PLATE) is reported as “inactive; negative”. For the same compound, the mutagenic call (Test System: AMES SALMONELLA TYPHIMURIUM, Strain/Indicator: TA98, Metabolic Activation: HAMSTER, LIVER, S-9, AROCLOR 1254, Method: STANDARD PLATE) was “inactive; negative”, the mutagenic call (Test System: AMES SALMONELLA TYPHIMURIUM, Strain/Indicator: TA98, Metabolic Activation: NONE, Method: STANDARD PLATE) was “inactive; negative” and the mutagenic call (Test System: AMES SALMONELLA TYPHIMURIUM, Strain/Indicator: TA98, Metabolic Activation: RAT LIVER S-9, AROCLOR 1254, Method: STANDARD PLATE) was “inactive; negative”. The mutagenic call (Test System: AMES SALMONELLA TYPHIMURIUM, Strain/Indicator: TA98, Metabolic Activation: RAT, LIVER, S-9, AROCLOR 1254, Method: STANDARD PLATE) was “inactive; negative”, the mutagenic call (Test System: AMES SALMONELLA TYPHIMURIUM, Strain/Indicator: TA100, Metabolic Activation: HAMSTER LIVER S-9, AROCLOR 1254, Method: STANDARD PLATE) was “inactive; negative” and the mutagenic call (Test System: AMES SALMONELLA TYPHIMURIUM, Strain/Indicator: TA100, Metabolic Activation: HAMSTER, LIVER, S-9, AROCLOR 1254, Method: STANDARD PLATE) was “inactive; negative”. For the same compound, the mutagenic call (Test System: AMES SALMONELLA TYPHIMURIUM, Strain/Indicator: TA100, Metabolic Activation: NONE, Method: STANDARD PLATE) was “inactive; negative”, the mutagenic call (Test System: AMES SALMONELLA TYPHIMURIUM, Strain/Indicator: TA100, Metabolic Activation: RAT LIVER S-9, AROCLOR 1254, Method: STANDARD PLATE) was “inactive; negative” and the mutagenic call (Test System: AMES SALMONELLA TYPHIMURIUM, Strain/Indicator: TA100, Metabolic Activation: RAT, LIVER, S-9, AROCLOR 1254, Method: STANDARD PLATE) was “inactive; negative”. The mutagenic call (Test System: AMES SALMONELLA TYPHIMURIUM, Strain/Indicator: TA102, Metabolic Activation: HAMSTER LIVER S-9, AROCLOR 1254, Method: STANDARD PLATE) was “inactive; negative”, the mutagenic call (Test System: AMES SALMONELLA TYPHIMURIUM, Strain/Indicator: TA102, Metabolic Activation: NONE, Method: STANDARD PLATE) was “inactive; negative” and the mutagenic call (Test System: AMES SALMONELLA TYPHIMURIUM, Strain/Indicator: TA102, Metabolic Activation: RAT LIVER S-9, AROCLOR 1254, Method: STANDARD PLATE) was “inactive; negative”. For the same compound, the mutagenic call (Test System: AMES SALMONELLA TYPHIMURIUM, Strain/Indicator: TA1535, Metabolic Activation: HAMSTER LIVER S-9, AROCLOR 1254, Method: STANDARD PLATE) was “inactive; negative”, the mutagenic call (Test System: AMES SALMONELLA TYPHIMURIUM, Strain/Indicator: TA1535, Metabolic Activation: HAMSTER, LIVER, S-9, AROCLOR 1254, Method: STANDARD PLATE) was “inactive; negative” and the mutagenic call (Test System: AMES SALMONELLA TYPHIMURIUM, Strain/Indicator: TA1535, Metabolic Activation: NONE, Method: STANDARD PLATE) was “inactive; negative”. The mutagenic call (Test System: AMES SALMONELLA TYPHIMURIUM, Strain/Indicator: TA1535, Metabolic Activation: RAT LIVER S-9, AROCLOR 1254, Method: STANDARD PLATE) was “inactive; negative”, the mutagenic call (Test System: AMES SALMONELLA TYPHIMURIUM, Strain/Indicator: TA1535, Metabolic Activation: RAT, LIVER, S-9, AROCLOR 1254, Method: STANDARD PLATE) was “inactive; negative” and the mutagenic call (Test System: AMES SALMONELLA TYPHIMURIUM, Strain/Indicator: TA1537, Metabolic Activation: HAMSTER LIVER S-9, AROCLOR 1254, Method: STANDARD PLATE) was “inactive; negative”. The mutagenic call (Test System: AMES SALMONELLA TYPHIMURIUM, Strain/Indicator: TA1537, Metabolic Activation: HAMSTER, LIVER, S-9, AROCLOR 1254, Method: STANDARD PLATE) was “inactive; negative”, the mutagenic call (Test System: AMES SALMONELLA TYPHIMURIUM, Strain/Indicator: TA1537, Metabolic Activation: NONE, Method: STANDARD PLATE) was “inactive; negative” and the mutagenic call (Test System: AMES SALMONELLA TYPHIMURIUM, Strain/Indicator: TA1537, Metabolic Activation: RAT LIVER S-9, AROCLOR 1254, Method: STANDARD PLATE) was “inactive; negative”. For the same compound, the mutagenic call (Test System: AMES SALMONELLA TYPHIMURIUM, Strain/Indicator: TA1537, Metabolic Activation: RAT, LIVER, S-9, AROCLOR 1254, Method: STANDARD PLATE) was “inactive; negative”, the mutagenic call (Test System: Ames Salmonella typhimurium, Strain/Indicator: TA97, Metabolic Activation: Hamster, Liver, S-9, Aroclor 1254 (10 and 30%), Method: Preincubation) was “inactive; negative” and the mutagenic call (Test System: Ames Salmonella typhimurium, Strain/Indicator: TA97, Metabolic Activation: None, Method: Preincubation) was “inactive; negative”. The mutagenic call (Test System: Ames Salmonella typhimurium, Strain/Indicator: TA97, Metabolic Activation: Rat, Liver, S-9, Aroclor 1254 (10 and 30%), Method: Preincubation) was “inactive; negative”, the mutagenic call (Test System: Ames Salmonella typhimurium, Strain/Indicator: TA98, Metabolic Activation: Hamster, Liver, S-9, Aroclor 1254 (10 and 30%), Method: Preincubation) was “inactive; negative” and the mutagenic call (Test System: Ames Salmonella typhimurium, Strain/Indicator: TA98, Metabolic Activation: None, Method: Preincubation) was “inactive; negative”. For the same compound, the mutagenic call (Test System: Ames Salmonella typhimurium, Strain/Indicator: TA98, Metabolic Activation: Rat, Liver, S-9, Aroclor 1254 (10 and 30%), Method: Preincubation) was “inactive; negative”, the mutagenic call (Test System: Ames Salmonella typhimurium, Strain/Indicator: TA100, Metabolic Activation: Hamster, Liver, S-9, Aroclor 1254 (10 and 30%), Method: Preincubation) was “inactive; negative” and the mutagenic call (Test System: Ames Salmonella typhimurium, Strain/Indicator: TA100, Metabolic Activation: None, Method: Preincubation) was “inactive; negative”. For the same compound, the mutagenic call (Test System: Ames Salmonella typhimurium, Strain/Indicator: TA100, Metabolic Activation: Rat, Liver, S-9, Aroclor 1254 (10 and 30%), Method: Preincubation) was “inactive; negative”, the mutagenic call (Test System: Ames Salmonella typhimurium, Strain/Indicator: TA102, Metabolic Activation: Hamster, Liver, S-9, Aroclor 1254 (10 and 30%), Method: Preincubation) was “inactive; negative” and the mutagenic call (Test System: Ames Salmonella typhimurium, Strain/Indicator: TA102, Metabolic Activation: Hamster, Liver, S-9, Aroclor 1254 (30%), Method: Preincubation) was “inactive; negative”. For the same compound, the mutagenic call (Test System: Ames Salmonella typhimurium, Strain/Indicator: TA102, Metabolic Activation: None, Method: Preincubation) was “inactive; negative”, the mutagenic call (Test System: Ames Salmonella typhimurium, Strain/Indicator: TA102, Metabolic Activation: Rat, Liver, S-9, Aroclor 1254 (10 and 30%), Method: Preincubation) was “inactive; negative” and the mutagenic call (Test System: Ames Salmonella typhimurium, Strain/Indicator: TA102, Metabolic Activation: Rat, Liver, S-9, Aroclor 1254 (30%), Method: Preincubation) was “inactive; negative”. The mutagenic call (Test System: Ames Salmonella typhimurium, Strain/Indicator: TA104, Metabolic Activation: Hamster, Liver, S-9, Aroclor 1254 (10 and 30%), Method: Preincubation) was “inactive; negative”, the mutagenic call (Test System: Ames Salmonella typhimurium, Strain/Indicator: TA104, Metabolic Activation: Hamster, Liver, S-9, Aroclor 1254 (30%), Method: Preincubation) was “inactive; negative” and the mutagenic call (Test System: Ames Salmonella typhimurium, Strain/Indicator: TA104, Metabolic Activation: None, Method: Preincubation) was “inactive; negative”. For the same compound, the mutagenic call (Test System: Ames Salmonella typhimurium, Strain/Indicator: TA104, Metabolic Activation: Rat, Liver, S-9, Aroclor 1254 (10 and 30%), Method: Preincubation) was “inactive; negative”, the mutagenic call (Test System: Ames Salmonella typhimurium, Strain/Indicator: TA104, Metabolic Activation: Rat, Liver, S-9, Aroclor 1254 (30%), Method: Preincubation) was “inactive; negative” and the mutagenic call (Test System: Ames Salmonella typhimurium, Strain/Indicator: TA1535, Metabolic Activation: Hamster, Liver, S-9, Aroclor 1254 (10 and 30%), Method: Preincubation) was “inactive; negative”. The mutagenic call (Test System: Ames Salmonella typhimurium, Strain/Indicator: TA1535, Metabolic Activation: None, Method: Preincubation) was “inactive; negative”, the mutagenic call (Test System: Ames Salmonella typhimurium, Strain/Indicator: TA1535, Metabolic Activation: Rat, Liver, S-9, Aroclor 1254 (10 and 30%), Method: Preincubation) was “inactive; negative” and the mutagenic call (Test System: CHINESE HAMSTER OVARY CELLS, Strain/Indicator: CHO CELLS (HPRT)/6-THIOGUANINE, Metabolic Activation: NONE, Method: STANDARD PLATE) was “active; positive”. The mutagenic call (Test System: CHINESE HAMSTER OVARY CELLS, Strain/Indicator: CHO-K1/HPRT/6-THIOGUANINE, Metabolic Activation: NONE, Method: 5 HR EXPOSURE) was “inactive; negative”, the mutagenic call (Test System: CHINESE HAMSTER OVARY CELLS, Strain/Indicator: CHO-K1/HPRT/6-THIOGUANINE, Metabolic Activation: NONE, Method: 48 HR EXPOSURE) was “inactive; negative” and the mutagenic call (Test System: CHINESE HAMSTER OVARY CELLS, Strain/Indicator: CHO-K1/HPRT/6-THIOGUANINE, Metabolic Activation: RAT, LIVER, S-9, AROCLOR 1254, Method: 5 HR EXPOSURE) was “inactive; negative”.
With `Cc1cccc2c([N+](=O)[O-])cc[n+]([O-])c12` the mutagenic call (Test System: UDS RODENT PRIMARY CELLS, Strain/Indicator: THY INCORP (NON-S-PHASE), Metabolic Activation: NONE, Method: AUTORADIOGRAPHY) was “active; positive”.
